Laboratory results published in PubChem BioAssay (NCI).
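Values below derive from 48-hour exposures of cells grown in 96-well plates, with endpoints linearly interpolated between the two concentrations bracketing the appropriate inhibition level. Here, GI50 denotes the concentration required for 50% inhibition of growth. TGI denotes the concentration required for complete inhibition of growth.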

Columns and labels:
Test in all cases: NCI anticancer screen, dose series, 48 h
[1] = test system: SF-268 CNS
[2] = test system: IGROV1 ovarian
[3] = test system: CAKI-1 renal
[4] = test system: SF-295 CNS
[5] = test system: SK-MEL-2 melanoma
[6] = test system: OVCAR-8 ovarian
[7] = test system: HCC-2998 colon
[8] = test system: EKVX NSCLC
[9] = test system: 786-0 renal
[10] = test system: CCRF-CEM leukemia
[11] = test system: HL-60(TB) leukemia
[12] = test system: HCT-15 colon
[13] = test system: PC-3 prostate
[14] = test system: OVCAR-3 ovarian
[15] = test system: DU-145 prostate
[16] = test system: COLO 205 colon
[17] = test system: KM12 colon
[18] = test system: SW-620 colon
[19] = test system: HOP-62 NSCLC
[20] = test system: K-562 leukemia
[21] = test system: ACHN renal
[22] = test system: SK-MEL-28 melanoma
[23] = test system: SR leukemia
[24] = test system: T-47D breast
[25] = test system: BT-549 breast
[26] = test system: UO-31 renal
[27] = test system: MOLT-4 leukemia
[28] = test system: OVCAR-5 ovarian
[29] = test system: SNB-19 CNS
[30] = test system: M14 melanoma
[31] = test system: MDA-MB-435
[32] = test system: NCI-H23 lung
[33] = test system: A549 NSCLC
[34] = test system: RPMI-8226 leukemia
[35] = test system: OVCAR-4 ovarian
[36] = test system: SF-539 CNS
[37] = test system: NCI-H460 lung
[38] = test system: SN12C renal
[39] = test system: MCF7 breast
[40] = test system: SK-OV-3 ovarian
[41] = test system: HS 578T breast
[42] = test system: MDA-MB-468 breast
[43] = test system: NCI-H522 lung
[44] = test system: SNB-75 CNS
[45] = test system: HCT-116 colon
[46] = test system: U251 CNS
[47] = test system: UACC-62 melanoma
[48] = test system: HOP-92 NSCLC
[49] = test system: LOX IMVI melanoma
[50] = test system: NCI-H226 lung
[51] = test system: TK-10 renal
[52] = test system: NCI/ADR-RES ovarian
[53] = test system: MALME-3M melanoma
[54] = test system: UACC-257 melanoma
[55] = test system: A498 renal
[56] = test system: MDA-MB-231 breast
[57] = test system: RXF 393 renal
[58] = test system: SK-MEL-5 melanoma

With `O=C(N/N=C/c1ccc(Cl)o1)c1[nH]c2ccc(Br)cc2c1-c1ccccc1` the GI50 [1] was 575 nM, the TGI [1] was > 48100 nM and the GI50 [2] was 401 nM. For the same compound, the TGI [2] was > 94900 nM, the GI50 [3] was 389 nM and the TGI [3] was 17900 nM. For the same compound, the GI50 [4] was 331 nM, the TGI [4] was > 49700 nM and the GI50 [5] was 423 nM. The TGI [5] was > 100000 nM, the GI50 [6] was 298 nM and the TGI [6] was 3180 nM. The GI50 [7] was 380 nM, the TGI [7] was 35100 nM and the GI50 [8] was 585 nM. The TGI [8] was > 100000 nM, the GI50 [9] was 443 nM and the TGI [9] was 8540 nM. It also gave a GI50 [10] of 351 nM, a TGI [10] of 20200 nM and a GI50 [11] of 235 nM. It also gave a TGI [11] of 713 nM, a GI50 [12] of 343 nM and a TGI [12] of 33600 nM. The GI50 [13] was 402 nM, the TGI [13] was > 100000 nM and the GI50 [14] was 367 nM. It also gave a TGI [14] of 14700 nM, a GI50 [15] of 382 nM and a TGI [15] of 13300 nM. For the same compound, the GI50 [16] was 245 nM, the TGI [16] was 549 nM and the GI50 [17] was 393 nM. For the same compound, the TGI [17] was > 100000 nM, the GI50 [18] was 378 nM and the TGI [18] was 27200 nM. It also gave a GI50 [19] of 472 nM, a TGI [19] of 27400 nM and a GI50 [20] of 251 nM. For the same compound, the TGI [20] was > 100000 nM, the GI50 [21] was 523 nM and the TGI [21] was 21000 nM. For the same compound, the GI50 [22] was 993 nM, the TGI [22] was > 61200 nM and the GI50 [23] was 458 nM. The TGI [23] was > 100000 nM, the GI50 [24] was 4530 nM and the TGI [24] was > 100000 nM. For the same compound, the GI50 [25] was 295 nM, the TGI [25] was 1750 nM and the GI50 [26] was 627 nM. For the same compound, the TGI [26] was 25900 nM, the GI50 [27] was 405 nM and the TGI [27] was > 51600 nM. It also gave a GI50 [28] of 388 nM, a TGI [28] of 22100 nM and a GI50 [29] of 442 nM. For the same compound, the TGI [29] was > 100000 nM, the GI50 [30] was 278 nM and the TGI [30] was 23100 nM. It also gave a GI50 [31] of 170 nM, a TGI [31] of 542 nM and a GI50 [32] of 417 nM. It also gave a TGI [32] of 27300 nM, a GI50 [33] of 383 nM and a TGI [33] of 32400 nM. The GI50 [34] was 407 nM, the TGI [34] was > 40500 nM and the GI50 [35] was 3810 nM. It also gave a TGI [35] of 40200 nM, a GI50 [36] of 212 nM and a TGI [36] of 625 nM. It also gave a GI50 [37] of 328 nM, a TGI [37] of 10600 nM and a GI50 [38] of 377 nM. For the same compound, the TGI [38] was 14200 nM, the GI50 [39] was 292 nM and the TGI [39] was > 100000 nM. For the same compound, the GI50 [40] was 567 nM, the TGI [40] was > 100000 nM and the GI50 [41] was 264 nM. For the same compound, the TGI [41] was 16600 nM, the GI50 [42] was 276 nM and the TGI [42] was 6370 nM. For the same compound, the GI50 [43] was 137 nM, the TGI [43] was 463 nM and the GI50 [44] was 309 nM. It also gave a TGI [44] of 18300 nM, a GI50 [45] of 128 nM and a TGI [45] of 3520 nM. For the same compound, the GI50 [46] was 340 nM, the TGI [46] was 28100 nM and the GI50 [47] was 346 nM. The TGI [47] was > 85900 nM, the GI50 [48] was 4200 nM and the TGI [48] was 43200 nM. It also gave a GI50 [49] of 276 nM, a TGI [49] of 14900 nM and a GI50 [50] of 619 nM. It also gave a TGI [50] of 29600 nM, a GI50 [51] of 8980 nM and a TGI [51] of 37200 nM. The GI50 [52] was 168 nM, the TGI [52] was 514 nM and the GI50 [53] was 462 nM. The TGI [53] was 49900 nM, the GI50 [54] was 3400 nM and the TGI [54] was > 100000 nM. For the same compound, the GI50 [55] was 20100 nM, the TGI [55] was 48900 nM and the GI50 [56] was 316 nM. It also gave a TGI [56] of 12100 nM, a GI50 [57] of 397 nM and a TGI [57] of 26100 nM. It also gave a GI50 [58] of 247 nM and a TGI [58] of 889 nM.
